Calls of active or inactive are those of the source. The rule behind the calls is not given here.
What was measured:
[1] = tested on: Panel NCI-60 (60 carcinoma cell lines); experiment: Growth inhibition of human Panel NCI-60 (60 carcinoma cell lines) cells; assay type: functional
[2] = tested on: Panel NCI-60 (60 carcinoma cell lines); experiment: Growth inhibition of human Panel NCI-60 (60 carcinoma cell lines) cells at 10 uM; assay type: functional, cell-based

Row | Compound | GI50 [1] | Activity [2]
1 | N[C@H](CS[C@H]1[C@H]2C(=O)C=C3S[C@H]4C[C@]31C1=C(N4)C(=O)c3[nH]cc4c3C1=[N+]2CC4)C(=O)O | > 10 µM | inactive
2 | O=C(O)CN[C@H]1[C@H]2C(=O)C=C3S[C@H]4C[C@]31C1=C(N4)C(=O)c3[nH]cc4c3C1=[N+]2CC4 | 16.9 µM | –
3 | N[C@@H](CCC(=O)N[C@@H](CS[C@H]1[C@H]2C(=O)C=C3S[C@H]4C[C@]31C1=C(N4)C(=O)c3[nH]cc4c3C1=[N+]2CC4)C(=O)NCC(=O)O)C(=O)O | > 10 µM | inactive
4 | COc1cccc2c1C(=O)c1c(O)c3c(c(O)c1C2=O)C[C@@](O)(C(=O)CO)C[C@@H]3O[C@H]1C[C@H](N)[C@H](O)[C@H](C)O1 [DOXORUBICIN] | 0.12 µM | –
5 | Cn1cnc(S[C@H]2[C@H]3C(=O)C=C4S[C@H]5C[C@]42C2=C(N5)C(=O)c4[nH]cc5c4C2=[N+]3CC5)c1C[C@H](N)C(=O)O | > 10 µM | –
6 | O=C1C=C(S[C@H]2[C@H]3C(=O)C=C4S[C@H]5C[C@]42C2=C(N5)C(=O)c4[nH]cc5c4C2=[N+]3CC5)[C@]2(C=C1Br)CCNC1=C2C2=NCCc3c[nH]c(c32)C1=O | 4.8 µM | –
7 | N[C@@H](CS[C@H]1[C@H]2C(=O)C=C3S[C@H]4C[C@]31C1=C(N4)C(=O)c3[nH]cc4c3C1=[N+]2CC4)C(=O)O | > 10 µM | inactive
8 | O=C1C2=C3C4=[N+](CCc5c[nH]c1c54)[C@H]1C[C@@]34C[C@@H](N2)SC4=CC1=O | 0.8 µM | –
9 | O=C1C2=C3C4=[N+](CCc5c[nH]c1c54)[C@@H]1C(=O)C=C4S[C@@H](C[C@@]43[C@H]1O)N2 | 0.79 µM | –
10 | COC(=O)CN[C@H]1[C@H]2C(=O)C=C3S[C@H]4C[C@]31C1=C(N4)C(=O)c3[nH]cc4c3C1=[N+]2CC4 | 2.45 µM | –
11 | N[C@@H](CS[C@H]1[C@H]2C(=O)C=C3S[C@H]4C[C@]31C1=C(N4)C(=O)c3[nH]cc4c3C1=[N+]2CC4)C(=O)NCC(=O)O | > 10 µM | inactive

Reference: ChEMBL document CHEMBL6092209, “New Discorhabdin D Analogues from Latrunculia spp. Sponges” (2024)
